pIC50: −log10 of the molar value. Counter-ions that a name gives are not always drawn. Like-named read-outs stand apart in the source and are kept apart here.
What was measured:
human JAK2 = human JAK2 (Homo sapiens (Human), UniProt O60674); experiment: JAK2 kinase domain Alphascreen enzyme screening; format: biochemical; details: read-out: JAK2_IC50_nM
Method: (§1) For screening purposes, compounds (in 100% DMSO) were warmed at 37° C. for at least 20 minutes before use. A […] stock was initially made in assay buffer, where the final concentration of DMSO was 0.3%. The stocks were then diluted in 384 well Optiplates (Packard) where the final concentration of the compound was 5 μM.
The kinase domain of human JAK2 was amplified from U937 mRNA using the polymerase chain reaction with the following primers: […]
The JAK2 PCR products were cloned into the pDest20 destination vector (Gibco). The JAK2 plasmid was then transformed into competent DH10Bac cells (Gibco), and the recombinant baculovirus was prepared via Sf9 insect cell transfection.
(§2) Baculovirus preparations from each of the JAK family members were infected into one litre of […] (Spodoptera frugiperda) cells (Invitrogen) grown in SF900II serum free medium (Invitrogen) to a cell density of approximately 2×10^6 cells/ml. Cells were infected with virus at a cell culture to virus stock ratio of 20:1. Cells were harvested and lysed 48 hours post infection. The GST-tagged JAK kinase domains were purified by affinity chromatography on a GSH agarose column (Scientifix).
Alphascreen phosphotyrosine acceptor beads followed by streptavidin donor beads at a concentration of 1/100 in stop buffer were added to each well under subdued light and incubated for 2-3 hours. The Alphascreen plates were read on a Packard Fusion Alpha instrument

human JAK3 = human JAK3 (Homo sapiens (Human), UniProt P52333); experiment: JAK3 kinase domain Alphascreen enzyme screening; format: biochemical; details: read-out: JAK3_ IC50_nM
Method: as §1
The kinase domain of human JAK3 was amplified from U937 mRNA using the polymerase chain reaction with the following primers: […]
The JAK3 PCR products were cloned into the pDest20 destination expression vector (Gibco). The JAK3 plasmid was then transformed into competent DH10Bac cells (Gibco), and the recombinant baculovirus was prepared via Sf9 insect cell transfection.
as §2
The compounds were then incubated with substrate in the presence of either […] ATP for 60 or 90 minutes. […] (final concentration 111 μM) or substrate-2 substrate with the sequence biotin-[…] [SEQ ID NO: 16] (final concentration 133 μM). Alphascreen phosphotyrosine acceptor beads followed by streptavidin donor beads at a concentration of 1/100 in stop buffer were added to each well under subdued light and incubated for 2-3 hours. The Alphascreen plates were read on a Packard Fusion Alpha instrument

CTLL2 = experiment: Cellular screening, CTLL2 cells (Alamar Blue); format: cell-based; details: Mus musculus, CTLL-2; 48-72 hr incubation; read-out: CTLL2_IC50_μM
Method: (§3) For screening purposes, compounds were diluted in 96 well plates at a concentration of 20 μM. Plates were warmed at 37° C. for 30 minutes before the assay was performed.
(§4) Cell suspensions were prepared by harvesting cells from culture (the cells used in this test were in late log phase growth with high viability.) Cells were diluted in the appropriate growth medium, as described above, to 1.1× final concentration (from 50,000 cell/mL to 200,000 cell/mL, depending on cell line).
(§5) Compounds to be tested were added (10 μL, 10× final concentration) to a flat bottomed 96-well plate. The cellular suspension (90 μL per well) was then added, and the plate incubated for 48-72 hr at 37° C., 5% CO2. Alamar Blue 10 μL per well was added and the plates returned to the incubator for a further 4-6 hours. The plates were then read at 544 nm.
(§6) Result are given in table 2 where +++ is <1 μM, ++ is <5 μM and + is <20 μM

BaF3 wild-type cells = experiment: Cellular screening, BaF3 wild-type cells (Alamar Blue); format: cell-based; details: Mus musculus, 48-72 hr incubation, read-out: BAF3wt_IC50_μM
Method: as §3
(§7) The growth factor dependent myelomonocytic cell line BaF3 bearing the pTET-off plasmid (Clontech) was transfected with either pTELJAK2 or pTELJAK3, and the transfected cells were selected for growth-factor independent cell growth. The BaF3 wild-type cells were cultured in DMEM containing 10% FCS, 10% WEHI 3B conditioned medium. The BaF3 TELJAK cells ([…]) were cultured in DMEM 10% Tet-System Approved FBS (without WEHI 3B conditioned medium).
as §4, §5, §6

[1] = tested on: BaF3 TELJAK cells (BafT_J2); experiment: Cellular screening, BaF3 TELJAK2 cells (Alamar Blue); format: cell-based; details: Mus musculus
Method: as §3
A TEL/Jak2 fusion was generated by digestion of the TELPCR product with BamH I/Sal I restriction enzymes, digestion of the JAK2 PCR product with Sal I/Not I restriction enzymes, followed by ligation and subcloning of the ligation product into the mammalian expression Vector pTRE 2 (Clontech), which was prepared by digestion with BamH I—Not I restriction enzymes, to give the TEL/Jak2 fusion plasmid pTELJAK2.
as §7, §4
as §5, with “hours.” for “hours. The plates were then read at 544 nm.”
as §6

[2] = BaF3, 48-72 hr incubation, read-out: BafT_J2_IC50_μM

Chain of human JAK2 (O60674 849-1124): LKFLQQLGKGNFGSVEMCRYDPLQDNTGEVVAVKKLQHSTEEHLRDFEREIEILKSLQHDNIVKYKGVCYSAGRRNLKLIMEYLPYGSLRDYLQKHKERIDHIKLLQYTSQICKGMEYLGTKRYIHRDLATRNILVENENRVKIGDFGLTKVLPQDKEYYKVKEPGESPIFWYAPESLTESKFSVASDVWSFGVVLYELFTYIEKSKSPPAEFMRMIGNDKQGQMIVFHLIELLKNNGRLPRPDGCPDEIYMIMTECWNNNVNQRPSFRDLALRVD
Chain of human JAK3 (P52333 822-1111): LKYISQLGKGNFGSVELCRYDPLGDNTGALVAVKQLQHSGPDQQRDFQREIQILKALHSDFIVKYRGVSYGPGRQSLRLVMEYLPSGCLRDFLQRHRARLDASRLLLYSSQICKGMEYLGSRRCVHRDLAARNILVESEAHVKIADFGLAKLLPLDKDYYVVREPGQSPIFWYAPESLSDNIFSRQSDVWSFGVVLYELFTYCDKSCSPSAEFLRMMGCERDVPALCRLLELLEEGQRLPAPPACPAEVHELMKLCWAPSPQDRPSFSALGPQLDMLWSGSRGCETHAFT

SMILES: N#CCNC(=O)CNC(=O)c1ccc(-c2ccnc(Nc3ccc(N4CCOCC4)cc3)n2)cc1 [Compound 34, N-(2-(cyanomethylamino)-2-oxoethyl)-4-(2-(4-morpholinophenyl-amino)pyrimidin-4-yl)benzamide]
- pIC50 (human JAK2): > 7.00
- pIC50 (human JAK3): > 6.30
- pIC50 (CTLL2): > 5.30
- pIC50 (BaF3 wild-type cells): > 5.30
- pIC50 [1, 2]: > 4.70

SMILES: N#CCNC(=O)c1ccc(-c2ccnc(Nc3ccc(N4CCC(CO)CC4)cc3)n2)cc1 [Compound 42, N-(cyanomethyl)-4-(2-(4-(4-(hydroxymethyl)piperidin-1-yl)phenylamino)pyrimidin-4-yl)benzamide]
- pIC50 (human JAK2): > 7.00
- pIC50 (human JAK3): > 6.30
- pIC50 (CTLL2): > 5.30
- pIC50 (BaF3 wild-type cells): > 5.30
- pIC50 [1, 2]: > 5.30

SMILES: N#CCNC(=O)c1ccc(-c2ccnc(Nc3ccc(C(=O)N4CCC(N5CCCC5)CC4)cc3)n2)cc1 [Compound 50, N-(cyanomethyl)-4-(2-(4-(4-(pyrrolidin-1-yl)piperidine-1-carbonyl)phenyl-amino)pyrimidin-4-yl)benzamide]
- pIC50 (human JAK2): > 7.00
- pIC50 (human JAK3): > 6.00
- pIC50 (CTLL2): < 4.70
- pIC50 (BaF3 wild-type cells): > 4.70
- pIC50 [1, 2]: > 5.30

SMILES: N#CCNC(=O)c1ccc(-c2nc(Nc3ccc(N4CCOCC4)cc3)ncc2Cl)cc1 [Compound 53, 4-(5-chloro-2-(4-morpholinophenyl-amino)pyrimidin-4-yl)-N-(cyanomethyl) benzamide]
- pIC50 (human JAK2): > 7.00
- pIC50 (human JAK3): > 6.30
- pIC50 (CTLL2): > 5.30
- pIC50 (BaF3 wild-type cells): > 5.30
- pIC50 [1, 2]: > 6.00

SMILES: CC(=O)N1CCN(c2ccc(Nc3nccc(-c4ccc(C(=O)NCC#N)cc4)n3)cc2)CC1 [Compound 55, 4-(2-(4-(4-acetylpiperazin-1-yl)phenylamino)pyrimidin-4-yl)-N-(cyanomethyl) benzamide]
- pIC50 (human JAK2): > 7.00
- pIC50 (human JAK3): > 7.00
- pIC50 (CTLL2): > 5.30
- pIC50 (BaF3 wild-type cells): > 5.30
- pIC50 [1, 2]: > 6.00

SMILES: Cc1cnc(Nc2ccc(N3CCC(NS(C)(=O)=O)CC3)cc2)nc1-c1ccc(C(=O)NCC#N)cc1 [Compound 56, N-(cyanomethyl)-4-(5-methyl-2-(4-(4-(methylsulfonamido)piperidin-1-yl)phenylamino)pyrimidin-4-yl)benzamide]
- pIC50 (human JAK2): > 7.00
- pIC50 (human JAK3): > 7.00
- pIC50 (CTLL2): > 5.30
- pIC50 (BaF3 wild-type cells): > 5.30
- pIC50 [1, 2]: > 6.00

SMILES: C#CCN(c1ccc(-c2ccnc(Nc3ccc(N4CCOCC4)cc3)n2)cc1)S(C)(=O)=O [Compound 57, N-(4-(2-(4-morpholinophenyl-amino)pyrimidin-4-yl)phenyl)-N-(prop-2-ynyl)methane-sulfonamide tosylate]
- pIC50 (human JAK2): > 7.00
- pIC50 (human JAK3): > 6.00
- pIC50 (CTLL2): > 5.30
- pIC50 (BaF3 wild-type cells): > 5.30
- pIC50 [1, 2]: > 5.30

SMILES: Cc1cnc(Nc2ccc(N3CCC(O)CC3)cc2)nc1-c1ccc(C(=O)NCC#N)cc1 [Compound 58, N-(cyanomethyl)-4-(2-(4-(4-hydroxypiperidin-1-yl)phenylamino)-5-methylpyrimidin-4-yl)benzamide]
- pIC50 (human JAK2): > 7.00
- pIC50 (human JAK3): > 7.00
- pIC50 (CTLL2): > 6.00
- pIC50 (BaF3 wild-type cells): > 5.30
- pIC50 [1, 2]: > 6.00

SMILES: N#CCNC(=O)c1ccc(-c2ccnc(Nc3ccc(OC4CCNCC4)cc3)n2)cc1 [Compound 59, N-(cyanomethyl)-4-(2-(4-(piperidin-4-yloxy)phenylamino)pyrimidin-4-yl)benzamide]
- pIC50 (human JAK2): > 7.00
- pIC50 (human JAK3): > 6.30
- pIC50 (CTLL2): > 5.30
- pIC50 (BaF3 wild-type cells): > 6.00
- pIC50 [1, 2]: > 5.30

SMILES: N#CCNC(=O)c1ccc(-c2nc(Nc3ccc(N4CCOCC4)cc3)ncc2Br)cc1 [Compound 65, 4-(5-bromo-2-(4-morpholinophenyl-amino)pyrimidin-4-yl)-N-(cyanomethyl) benzamide]
- pIC50 (human JAK2): > 7.00
- pIC50 (human JAK3): > 7.00
- pIC50 (CTLL2): > 6.00
- pIC50 (BaF3 wild-type cells): > 6.00
- pIC50 [1, 2]: > 6.00

SMILES: CCCOCc1cccc(Nc2nccc(-c3ccc(C(=O)NCC#N)cc3)n2)c1 [Compound 75, N-(cyanomethyl)-4-(2-(3-(proproxymethyl)phenylamino)pyrimidin-4-yl)benzamide]
- pIC50 (human JAK2): > 7.00
- pIC50 (human JAK3): > 6.00
- pIC50 (CTLL2): > 5.30
- pIC50 (BaF3 wild-type cells): > 5.30
- pIC50 [1, 2]: > 5.30

SMILES: N#CCC(=O)Nc1ccc(-c2ccnc(Nc3ccc(N4CCOCC4)cc3)n2)cc1C(F)(F)F [Compound 76, 2-cyano-N-(4-(2-(4-morpholinophenyl-amino)pyrimidin-4-yl)-2-(trifluoromethyl)phenyl)acetamide]
- pIC50 (human JAK2): > 7.00
- pIC50 (human JAK3): > 6.00
- pIC50 (CTLL2): > 5.30
- pIC50 (BaF3 wild-type cells): > 5.30
- pIC50 [1, 2]: > 5.30

SMILES: C=CCOCc1cc(Nc2nccc(-c3ccc(C(=O)NCC#N)cc3)n2)ccc1N1CCOCC1 [Compound 79]
- pIC50 (human JAK2): > 7.00
- pIC50 (human JAK3): > 6.30
- pIC50 (CTLL2): > 5.30
- pIC50 (BaF3 wild-type cells): > 6.00
- pIC50 [1, 2]: > 6.00

SMILES: CCN1CCC(Oc2ccc(Nc3nccc(-c4ccc(C(=O)NCC#N)cc4)n3)cc2)CC1 [Compound 80, N-(cyanomethyl)-4-(2-(4-(1-ethylpiperidin-4-yloxy)phenylamino)pyrimidin-4-yl)benzamide]
- pIC50 (human JAK2): > 7.00
- pIC50 (human JAK3): > 6.30
- pIC50 (CTLL2): > 5.30
- pIC50 (BaF3 wild-type cells): > 5.30
- pIC50 [1, 2]: > 6.00

SMILES: CS(=O)(=O)N(CC#N)c1ccc(-c2ccnc(Nc3ccc(N4CCOCC4)c(F)c3)n2)cc1 [Compound 81, N-(cyanomethyl)-N-(4-(2-(3-fluoro-4-morpholinophenyl-amino)pyrimidin-4-yl)phenyl)methane-sulfonamide]
- pIC50 (human JAK2): > 7.00
- pIC50 (human JAK3): < 6.00
- pIC50 (CTLL2): > 5.30
- pIC50 (BaF3 wild-type cells): > 5.30
- pIC50 [1, 2]: > 6.00

SMILES: CS(=O)(=O)N(CC#N)c1ccc(-c2ccnc(Nc3ccc(N4CCOCC4)c(C#N)c3)n2)cc1 [Compound 82, N-(4-(2-(3-cyano-4-morpholinophenyl-amino)pyrimidin-4-yl)phenyl)-N-(cyanomethyl) methanesulfonamide]
- pIC50 (human JAK2): > 7.00
- pIC50 (human JAK3): < 6.00
- pIC50 (CTLL2): > 5.30
- pIC50 (BaF3 wild-type cells): > 5.30
- pIC50 [1, 2]: > 6.00

SMILES: N#CCNC(=O)c1ccc(-c2ccnc(Nc3ccc(N4CCS(=O)(=O)CC4)cc3)n2)cc1 [Compound 89, N-(cyanomethyl)-4-(2-{[4-(1,1-dioxo-1λ^6,4-thiomorpholin-4-yl)phenyl]amino}pyrimidin-4-yl)benzamide]
- pIC50 (human JAK2): > 7.00
- pIC50 (human JAK3): > 6.30
- pIC50 (CTLL2): > 5.30
- pIC50 (BaF3 wild-type cells): > 5.30
- pIC50 [1, 2]: > 5.30

SMILES: N#CCNC(=O)c1ccc(-c2nc(Nc3ccc(N4CCOCC4)cc3)ncc2F)cc1 [Compound 93, N-(cyanomethyl)-4-(5-fluoro-2-(4-morpholinophenyl-amino)pyrimidin-4-yl)benzamide]
- pIC50 (human JAK2): > 7.00
- pIC50 (human JAK3): > 6.30
- pIC50 (CTLL2): > 6.00
- pIC50 (BaF3 wild-type cells): > 6.00
- pIC50 ([1]; BaF3, read-out: BafT_J2_IC50_μM): > 6.00

Source: patent US12570614B2, “Phenyl amino pyrimidine compounds and uses thereof” (GlaxoSmithKline LLC, priority 2007, dated 2026)
